Data: patent US11919901B2 (Syndax Pharmaceuticals, Inc., priority 2021, dated 2024)

Target: Menin-MLL (Homo sapiens (Human), UniProt O00255)
Experiment: Determination of binding constants (Ki) to Menin-MLL (HTRF)
Details: HTRF, 0.25 nM H-FL-Menin, 3.2 nM FITC-MLL-4-43, 24 hr incubation; for Ki: read-out: Menin-MLL Ki HTRF Assay: Ki

Menin-MLL, sequence (O00255 whole entry): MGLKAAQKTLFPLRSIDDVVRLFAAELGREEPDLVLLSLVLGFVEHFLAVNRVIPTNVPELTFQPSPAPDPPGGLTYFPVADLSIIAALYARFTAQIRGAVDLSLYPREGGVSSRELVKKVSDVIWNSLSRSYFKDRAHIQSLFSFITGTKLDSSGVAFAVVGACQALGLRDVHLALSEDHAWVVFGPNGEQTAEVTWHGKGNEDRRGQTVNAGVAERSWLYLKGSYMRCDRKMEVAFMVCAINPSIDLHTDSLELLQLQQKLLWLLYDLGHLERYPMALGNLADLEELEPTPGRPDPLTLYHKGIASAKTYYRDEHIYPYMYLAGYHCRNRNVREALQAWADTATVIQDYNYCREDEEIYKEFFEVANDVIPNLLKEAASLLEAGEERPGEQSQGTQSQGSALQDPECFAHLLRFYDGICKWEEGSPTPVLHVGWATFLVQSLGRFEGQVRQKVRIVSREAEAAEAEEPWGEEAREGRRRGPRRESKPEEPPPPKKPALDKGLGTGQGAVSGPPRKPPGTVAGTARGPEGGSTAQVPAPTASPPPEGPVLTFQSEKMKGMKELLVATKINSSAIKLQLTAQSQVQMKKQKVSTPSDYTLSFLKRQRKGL

Row | SMILES | Ki | EC50
1 | CCS(=O)(=O)N[C@@H]1CC[C@@H](CN2CCC3(CC2)CN(c2ncnnc2Oc2ccc(F)cc2C(=O)N(CC(F)(F)F)C(C)C)C3)OC1 [Compound 190, 2-((5-(7-(((2S,5R)-5-(Ethylsulfonamido)tetrahydro-2H-pyran-2-yl)methyl)-2,7-diazaspiro[3.5]nonan-2-yl)-1,2,4-triazin-6-yl)oxy)-5-fluoro-N-isopropyl-N-(2,2,2-trifluoroethyl)benzamide] | < 1 nM | –
2 | CC(C)N(CC(F)(F)F)C(=O)c1cc(F)ccc1Oc1nncnc1N1CC2(CCN(C[C@@H]3CC[C@@H](NS(=O)(=O)C4CC4)CO3)CC2)C1 [Compound 191, 2-((5-(7-(((2S,5R)-5-(Cyclopropanesulfonamido)tetrahydro-2H-pyran-2-yl)methyl)-2,7-diazaspiro[3.5]nonan-2-yl)-1,2,4-triazin-6-yl)oxy)-5-fluoro-N-isopropyl-N-(2,2,2-trifluoroethyl)benzamide] | < 1 nM | –
3 | CC(C)N(CC(F)(F)F)C(=O)c1cc(F)ccc1Oc1nncnc1N1CC2(CCN(C[C@@H]3CC[C@@H](NS(=O)(=O)c4cnn(C)c4)CO3)CC2)C1 [Compound 192, 5-Fluoro-N-isopropyl-2-((5-(7-(((2R,5S)-5-((1-methyl-1H-pyrazole)-4-sulfonamido)tetrahydro-2H-pyran-2-yl)methyl)-2,7-diazaspiro[3.5]nonan-2-yl)-1,2,4-triazin-6-yl)oxy)-N-(2,2,2-trifluoroethyl)benzamide] | < 1 nM | –
4 | CCS(=O)(=O)N[C@@H]1CC[C@@H](CN2CCC3(CC2)CN(c2ncnnc2Oc2ccc(F)cc2C(=O)N(C(C)C)C(C)C)C3)OC1 [Compound 195, 2-((5-(7-(((2S,5R)-5-(Ethylsulfonamido)tetrahydro-2H-pyran-2-yl)methyl)-2,7-diazaspiro[3.5]nonan-2-yl)-1,2,4-triazin-6-yl)oxy)-5-fluoro-N,N-diisopropylbenzamide] | < 1 nM | –
5 | CC(C)N(C(=O)c1cc(F)ccc1Oc1nncnc1N1CC2(CCN(C[C@@H]3CC[C@@H](NS(=O)(=O)c4cnn(C)c4)CO3)CC2)C1)C(C)C [Compound 197, 5-Fluoro-N,N-diisopropyl-2-((5-(7-(((2S,5R)-5-((1-methyl-1H-pyrazole)-4-sulfonamido)tetrahydro-2H-pyran-2-yl)methyl)-2,7-diazaspiro[3.5]nonan-2-yl)-1,2,4-triazin-6-yl)oxy)benzamide] | < 1 nM | –
6 | CC(C)N(C(=O)c1cc(F)ccc1Oc1cncnc1N1CC2(CCN(C[C@@H]3CC[C@@H](NS(=O)(=O)N4CCC[C@H]4C)CO3)CC2)C1)[C@@H]1CCOC1 [Compound 204, 5-Fluoro-N-isopropyl-2-((4-(7-(((2S,5R)-5-(((R)-2-methylpyrrolidine)-1-sulfonamido)tetrahydro-2H-pyran-2-yl)methyl)-2,7-diazaspiro[3.5]nonan-2-yl)pyrimidin-5-yl)oxy)-N-((R)-tetrahydrofuran-3-yl)benzamide] | < 1 nM | –
7 | CC(C)N(C(=O)c1cc(F)ccc1Oc1cncnc1N1CC2(CCN(C[C@@H]3CC[C@@H](NS(=O)(=O)N4CCC[C@@H]4C)CO3)CC2)C1)[C@@H]1CCOC1 [Compound 205, 5-Fluoro-N-isopropyl-2-((4-(7-(((2S,5R)-5-(((S)-2-methylpyrrolidine)-1-sulfonamido)tetrahydro-2H-pyran-2-yl)methyl)-2,7-diazaspiro[3.5]nonan-2-yl)pyrimidin-5-yl)oxy)-N-((R)-tetrahydrofuran-3-yl)benzamide] | < 1 nM | –
8 | CC(C)N(C(=O)c1cc(F)ccc1Oc1cncnc1N1CC2(CCN(C[C@@H]3CC[C@@H](NS(=O)(=O)N4CCC[C@@H]4C)CO3)CC2)C1)C1CCOC1 (stereo partly drawn) [Compound 206, 5-Fluoro-N-isopropyl-2-((4-(7-(((2S,5R)-5-(((S)-2-methylpyrrolidine)-1-sulfonamido)tetrahydro-2H-pyran-2-yl)methyl)-2,7-diazaspiro[3.5]nonan-2-yl)pyrimidin-5-yl)oxy)-N-((S)-tetrahydrofuran-3-yl)benzamide] | < 1 nM | –
9 | CC(C)N(C(=O)c1cc(F)ccc1Oc1cncnc1N1CC2(CCN(C[C@@H]3CC[C@@H](NS(=O)(=O)N4CCC[C@H]4C)CO3)CC2)C1)C1CCOC1 (stereo partly drawn) [Compound 207, 5-Fluoro-N-isopropyl-2-((4-(7-(((2S,5R)-5-(((R)-2-methylpyrrolidine)-1-sulfonamido)tetrahydro-2H-pyran-2-yl)methyl)-2,7-diazaspiro[3.5]nonan-2-yl)pyrimidin-5-yl)oxy)-N-((S)-tetrahydrofuran-3-yl)benzamide] | < 1 nM | –
10 | COC[C@H]1CCCN1S(=O)(=O)N[C@@H]1CC[C@@H](CN2CCC3(CC2)CN(c2ncncc2Oc2ccc(F)cc2C(=O)N(C(C)C)C(C)C)C3)OC1 [Compound 212, 5-Fluoro-N,N-diisopropyl-2-((4-(7-(((2S,5R)-5-(((R)-2-(methoxymethyl)pyrrolidine)-1-sulfonamido)tetrahydro-2H-pyran-2-yl)methyl)-2,7-diazaspiro[3.5]nonan-2-yl)pyrimidin-5-yl)oxy)benzamide] | < 1 nM | –
11 | COC[C@@H]1CCCN1S(=O)(=O)N[C@@H]1CC[C@@H](CN2CCC3(CC2)CN(c2ncncc2Oc2ccc(F)cc2C(=O)N(C(C)C)C(C)C)C3)OC1 [Compound 213, 5-Fluoro-N,N-diisopropyl-2-((4-(7-(((2S,5R)-5-(((S)-2-(methoxymethyl)pyrrolidine)-1-sulfonamido)tetrahydro-2H-pyran-2-yl)methyl)-2,7-diazaspiro[3.5]nonan-2-yl)pyrimidin-5-yl)oxy)benzamide] | < 1 nM | –
12 | CCN(C(=O)c1cc(F)ccc1Oc1cncnc1N1CC2(CCN(C[C@@H]3CC[C@@H](NC(=O)Nc4ccccc4)CO3)CC2)C1)C(C)C [Compound 215, N-Ethyl-5-fluoro-N-isopropyl-2-((4-(7-(((2S,5R)-5-(3-phenylureido)tetrahydro-2H-pyran-2-yl)methyl)-2,7-diazaspiro[3.5]nonan-2-yl)pyrimidin-5-yl)oxy)benzamide] | – | 50 to 100 nM
13 | CCN(C(=O)c1cc(F)ccc1Oc1cnc(C)nc1N1CC2(CCN(C[C@@H]3CC[C@@H](NS(=O)(=O)CC)CO3)CC2)C1)C(C)C [Compound 216, N-Ethyl-2-((4-(7-(((2S,5R)-5-(ethylsulfonamido)tetrahydro-2H-pyran-2-yl)methyl)-2,7-diazaspiro[3.5]nonan-2-yl)-2-methylpyrimidin-5-yl)oxy)-5-fluoro-N-isopropylbenzamide] | 1 to 1.5 nM | –
14 | C=CS(=O)(=O)N[C@@H]1CC[C@@H](CN2CCC3(CC2)CN(c2ncncc2Oc2ccc(F)cc2C(=O)N(CC)C(C)C)C3)OC1 [Compound 219, N-Ethyl-5-fluoro-N-isopropyl-2-((4-(7-(((2S,5R)-5-(vinylsulfonamido)tetrahydro-2H-pyran-2-yl)methyl)-2,7-diazaspiro[3.5]nonan-2-yl)pyrimidin-5-yl)oxy)benzamide] | < 1 nM | –
15 | CCN(C(=O)c1cc(F)ccc1Oc1cncnc1N1CC2(CCN(C[C@@H]3CC[C@@H](NS(=O)(=O)CCN(C)C)CO3)CC2)C1)C(C)C [Compound 220, 2-((4-(7-(((2S,5R)-5-((2-(Dimethylamino)ethyl)sulfonamido)tetrahydro-2H-pyran-2-yl)methyl)-2,7-diazaspiro[3.5]nonan-2-yl)pyrimidin-5-yl)oxy)-N-ethyl-5-fluoro-N-isopropylbenzamide] | 1 to 1.5 nM | –
16 | CC(C)N(C(=O)c1cc(F)ccc1Oc1cncnc1N1CC2(CCN(C[C@@H]3CC[C@@H](NS(=O)(=O)N4CC5(CCO5)C4)CO3)CC2)C1)C(C)C [Compound 221, 2-((4-(7-(((2S,5R)-5-(1-Oxa-6-azaspiro[3.3]heptane-6-sulfonamido)tetrahydro-2H-pyran-2-yl)methyl)-2,7-diazaspiro[3.5]nonan-2-yl)pyrimidin-5-yl)oxy)-5-fluoro-N,N-diisopropylbenzamide] | < 1 nM | –
17 | CC(C)N(C(=O)c1cc(F)ccc1Oc1cncnc1N1CC2(CCN(C[C@@H]3CC[C@@H](NS(=O)(=O)N4CC5(COC5)C4)CO3)CC2)C1)C(C)C [Compound 222, 2-((4-(7-(((2S,5R)-5-(2-Oxa-6-azaspiro[3.3]heptane-6-sulfonamido)tetrahydro-2H-pyran-2-yl)methyl)-2,7-diazaspiro[3.5]nonan-2-yl)pyrimidin-5-yl)oxy)-5-fluoro-N,N-diisopropylbenzamide] | < 1 nM | –
18 | CN=S(=O)(N[C@@H]1CC[C@@H](CN2CCC3(CC2)CN(c2ncncc2Oc2ccc(F)cc2C(=O)N(C(C)C)C(C)C)C3)OC1)c1ccccc1 (stereo partly drawn) [Compound 232, 5-Fluoro-N,N-diisopropyl-2-((4-(7-(((2S,5R)-5-(N′-methylphenylsulfonoamidimidamido)tetrahydro-2H-pyran-2-yl)methyl)-2,7-diazaspiro[3.5]nonan-2-yl)pyrimidin-5-yl)oxy)benzamide] | < 1 nM | –
19 | CC(C)N(C(=O)c1cc(F)ccc1Oc1cncnc1N1CC2(CCN(C[C@@H]3CC[C@@H](NS(=N)(=O)C4CC4)CO3)CC2)C1)C(C)C (stereo partly drawn) [Compound 233, 2-((4-(7-(((2S,5R)-5-(Cyclopropanesulfonoamidimidamido)tetrahydro-2H-pyran-2-yl)methyl)-2,7-diazaspiro[3.5]nonan-2-yl)pyrimidin-5-yl)oxy)-5-fluoro-N,N-diisopropylbenzamide] | < 1 nM | –
20 | Cc1ncc(S(=O)(=O)N[C@@H]2CC[C@@H](CN3CCC4(CC3)CN(c3ncncc3Oc3ccc(F)cc3C(=O)N(C(C)C)C(C)C)C4)OC2)[nH]1 [Compound 234, 5-Fluoro-N,N-diisopropyl-2-((4-(7-(((2S,5R)-5-((2-methyl-1H-imidazole)-5-sulfonamido)tetrahydro-2H-pyran-2-yl)methyl)-2,7-diazaspiro[3.5]nonan-2-yl)pyrimidin-5-yl)oxy)benzamide] | < 1 nM | –
21 | CC(C)N(CC(F)F)C(=O)c1cc(F)ccc1Oc1cncnc1N1CC2(CCN(C[C@@H]3CC[C@@H](NS(=O)(=O)N4CC(OCc5ccccc5)C4)CO3)CC2)C1 [Compound 236, 2-((4-(7-(((2S,5R)-5-((3-(Benzyloxy)azetidine)-1-sulfonamido)tetrahydro-2H-pyran-2-yl)methyl)-2,7-diazaspiro[3.5]nonan-2-yl)pyrimidin-5-yl)oxy)-N-(2,2-difluoroethyl)-5-fluoro-N-isopropylbenzamide] | < 1 nM | –
